Laboratory results as given in patent US4841044A, “Cephalosporin derivatives” (Taisho Pharmaceutical Co., Ltd., priority 1985, dated 1989).
In brackets after ≈: the same amount, converted by molar mass. Read-outs that look alike come from different tables or passages of the source.

What was measured:
[1] = tested on: Escherichia coli NIHJ JC-2; test: Antibacterial activity (MIC), agar plate dilution method; type: cell-based
Experimental: (§1) The antibacterial activity of the compounds of the present invention against various bacteria (inoculum size: 10^6 cells/ml) were tested by the agar plate dilution method, and the results are shown in the following Table 1.

[2] = tested on: Klebsiella pneumoniae IFO 3317; test: as above; type: cell-based
Experimental: as §1

[3] = tested on: Proteus mirabilis IFO 3849; test: as above; type: cell-based
Experimental: as §1

[4] = tested on: Serratia marcescens IID 618; test: as above; type: cell-based
Experimental: as §1

[5] = in vivo; conditions: rat, blood, oral, 50 mg/kg, male wister rats (7 weeks old), bioassay (Escherichia coli SC507); for concentration at 4 h: Four Hours; for concentration at 1 h: One Hour; for concentration at 2 h: Two Hours
Experimental: Male wister rats (7 weeks old) were administered orally with the test compound, and the change of the concentration of the compound in blood was measured.
Dosage of the test compound:
Quantitative method: Bioassay
(test bacterium: Escherichia coli SC507)

SMILES	MIC ([1]; NIHJJC2, Escherichia coli NIHJ JC-2, inoculum size: 10^6 cells/ml, agar plate dilution, read-out: MIC)	MIC ([2]; IFO3317, Klebsiella pneumoniae IFO 3317, inoculum size: 10^6 cells/ml, agar plate dilution, read-out: MIC)	MIC ([3]; IFO3849, Proteus mirabilis IFO 3849, inoculum size: 10^6 cells/ml, agar plate dilution, read-out: MIC)	MIC ([4]; IID618, Serratia marcescens IID 618, inoculum size: 10^6 cells/ml, agar plate dilution, read-out: MIC)	concentration at 4 h [5]	concentration at 1 h [5]	concentration at 2 h [5]	MIC ([1]; Escherichia coli, NIHJJC2)	MIC ([2]; Klebsiella pneumoniae, IFO3317)	MIC ([3]; Proteus mirabilis, IFO3849)	MIC ([4]; Serratia marcescens, IID618)	MIC ([1]; Escherichia coli NIHJ JC-2, inoculum size: 10^6 cells/ml, agar plate dilution)	MIC ([2]; Klebsiella pneumoniae IFO 3317, inoculum size: 10^6 cells/ml, agar plate dilution)	MIC ([3]; Proteus mirabilis IFO 3849, inoculum size: 10^6 cells/ml, agar plate dilution)	MIC ([4]; Serratia marcescens IID 618, inoculum size: 10^6 cells/ml, agar plate dilution)
CNC(=O)/C=C\SC1=C(C(=O)O)N2C(=O)[C@@H](NC(=O)/C(=N\OCC(=O)O)c3csc(N)n3)[C@H]2SC1 [C]	0.2 µg/mL (≈ 0.369 µM)	0.05 µg/mL (≈ 0.0922 µM)	0.025 µg/mL (≈ 0.0461 µM)	0.39 µg/mL (≈ 0.719 µM)	22400 ng/mL	20800 ng/mL	26600 ng/mL								
CCNC(=O)/C=C\SC1=C(C(=O)[O-])N2C(=O)[C@@H](NC(=O)/C(=N\OCC(=O)[O-])c3csc(N)n3)[C@H]2SC1.[Na+].[Na+]					24200 ng/mL	26800 ng/mL	34300 ng/mL	0.39 µg/mL	0.05 µg/mL	0.025 µg/mL	0.39 µg/mL				
CC1=C(C(=O)O)N2C(=O)[C@@H](NC(=O)[C@H](N)c3ccccc3)[C@H]2SC1 [YY, Cefalexin, reference compound]								12.5 µg/mL (≈ 36 µM)	6.25 µg/mL (≈ 18 µM)	12.5 µg/mL (≈ 36 µM)	> 100 µg/mL				
CN(C)C(=O)/C=C\SC1=C(C(=O)[O-])N2C(=O)[C@@H](NC(=O)/C(=N\OCC(=O)O)c3csc(N)n3)[C@H]2SC1.[Na+] [A, 7β-{α-(2-aminothiazole-4-yl)-α-[(Z)-carboxymethoxyimino]acetamido}-3-[(Z)-2-N,N-dimethylaminocarbonylvinylthio]-3-cephem-4-carboxylic acid sodium salt]												0.2 µg/mL	0.05 µg/mL	< 0.025 µg/mL	0.2 µg/mL
